Target: T1, glutaminase (GAC) (Homo sapiens, UniProt O94925)
T1 sequence (O94925 55-598 isoform O94925-3 limits assumed): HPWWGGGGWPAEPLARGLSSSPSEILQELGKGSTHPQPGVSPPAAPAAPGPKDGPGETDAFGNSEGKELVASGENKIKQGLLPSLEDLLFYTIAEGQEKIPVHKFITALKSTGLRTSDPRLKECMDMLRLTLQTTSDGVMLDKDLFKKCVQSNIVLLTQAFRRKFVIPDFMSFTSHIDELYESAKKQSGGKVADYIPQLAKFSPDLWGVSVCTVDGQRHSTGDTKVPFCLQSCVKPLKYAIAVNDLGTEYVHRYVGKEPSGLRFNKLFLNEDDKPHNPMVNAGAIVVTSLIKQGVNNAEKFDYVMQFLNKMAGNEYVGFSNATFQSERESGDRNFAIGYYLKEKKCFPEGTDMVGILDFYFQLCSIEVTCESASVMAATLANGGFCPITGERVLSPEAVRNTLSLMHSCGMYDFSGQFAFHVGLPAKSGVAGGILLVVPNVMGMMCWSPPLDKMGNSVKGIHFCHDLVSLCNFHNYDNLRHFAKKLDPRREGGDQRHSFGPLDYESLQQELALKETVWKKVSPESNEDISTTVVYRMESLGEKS
Assay: glutaminase coupled endpoint assay (Example A)
Assay type: biochemical
Settings: inhibition of glutaminase; assay of Example A or Example B
Experimental: In this example, the enzymatic activity of glutaminase is measured through a coupled endpoint assay. Glutamine and phosphate are supplied to GAC at a concentration equal to Km and AC50, respectively, and GAC concentration is adjusted to give a linear reaction for 60 minutes. The glutamate produced is converted to 2-OG by a kinetic excess of glutamate dehydrogenase. This second step is configured for 2× Km for NAD, since excess NAD is inhibitory. However, a kinetic excess of the third coupling enzyme, diaphorase, recycles NAD from NADH to keep the NAD concentration constant during the timecourse of the assay. Diaphorase, also supplied in kinetic excess, oxidizes NADH produced by GDH back to NAD with the concomitant reduction of rezasurin to the highly fluorescent resorufin. Resorufin in measured after the assay is stopped with SDS by Ex544/Em590. A reduction in the signal indicates inhibition of some component of the coupled enzyme system. Prospective hits are counterscreened against GDH/diaphorase alone to remove hits to the coupling enzyme system in a second assay.
2. Buffers • 2× Buffer (300 mM NaCl, 100 mM HEPES pH 8.5, 0.1% BSA, 0.5 mM EDTA, 100 mM sodium phosphate pH 8.5) • 5× Substrate Mix (1× Buffer final concentration, with 13 mM glutamine, 100 μM resazurin, 50 μg/ml diaphorase) • 1.2× Enzyme Mix (1× Buffer final concentration, with 0.875 μg/ml GAC, 1.56 mM NAD, 6.25 units/ml GDH) • Stop Mix (6% SDS in ddH20) Reaction Procedure • 1. Add 1 μl compound in 100% DMSO • 2. Add 40 μl of Enzyme Mix and incubate for 60 minute at room temperature • 3. Add 10 μl of Substrate Mix to start reaction • 4. Stop reaction with 25 μl of 6% SDS and read Ex544 Em 590
A compound described herein may be tested for its ability to inhibit glutaminase, e.g., by an assay as described in the Examples. For simplicity, the inhibition activity of these compounds is represented as an IC50 tested in an assay of Example A or Example B in Table 1. As shown, “A” refers to an inhibitor of glutaminase with an IC50<100 nM. “B” refers to inhibitor of glutaminase with an IC50 between 100 nM and 500 nM. “C” refers to inhibitor of glutaminase with an IC50 between 500 nM and 1000 nM. “D” refers to inhibitor of glutaminase with an IC50 between 1 μM and 2 μM. “E” refers to inhibitor of glutaminase with an IC50 between 2 μM and 10 μM. “N/A” refers to compounds wherein the IC50 is unavailable.

Structure (SMILES)	IC50
O=C(Cc1cccc(OC(F)(F)F)c1)Nc1ccc([C@@H]2CCC[C@H](c3ccc(NC(=O)Cc4cccc(OC(F)(F)F)c4)nn3)C2)nn1 [Compound 180]	100 to 500 nM
CC(C)C(=O)Nc1ccc([C@@H]2CCC[C@H](c3ccc(NC(=O)C(C)C)nn3)C2)nn1 [Compound 98, N,N′-(6,6′-((1R,3S)-Cyclohexane-1,3-diyl)bis(pyridazine-6,3-diyl))bis(2-methylpropanamide)]	100 to 500 nM
CC(=O)Nc1ccc([C@@H]2CCC[C@H](c3ccc(NC(C)=O)nn3)C2)nn1 [Compound 99, N,N′-(6,6′-((1R,3S)-Cyclohexane-1,3-diyl)bis(pyridazine-6,3-diyl))diacetamide]	< 100 nM
O=C(Cc1ccc(OC(F)(F)F)cc1)Nc1ccc([C@H]2CCC[C@H](c3ccc(NC(=O)Cc4ccc(OC(F)(F)F)cc4)nn3)C2)nn1 (racemic) [Compound 75, Trans-(rac)-N,N′-(6,6′-(cyclohexane-1,3-diyl)bis(pyridazine-6,3-diyl))bis(2-(4-(trifluoromethoxy)phenyl)acetamide)]	2000 to 10000 nM
O=C(Cc1ccccn1)Nc1ccc([C@@H]2CCC[C@@H](c3ccc(NC(=O)Cc4ccccn4)nn3)C2)nn1 (racemic) [Compound 14, Trans-(rac)-N,N′-(6,6′-(cyclohexane-1,3-diyl)bis(pyridazine-6,3-diyl))bis(2-(pyridin-2-yl)acetamide)]	< 100 nM
CCC(=O)Nc1ccc([C@@H]2CCC[C@H](c3ccc(NC(=O)CC)nn3)C2)nn1 [Compound 152, N,N′-(6,6′-((1R,3S)-Cyclohexane-1,3-diyl)bis(pyridazine-6,3-diyl))dipropionamide]	< 100 nM
O=C(Cc1ccccn1)Nc1ccc(C2CCC(c3ccc(NC(=O)Cc4ccccn4)nn3)C2)nn1 (stereo not shown) [Compound 175, N, N′-(6,6′-(Cyclopentane-1,3-diyl)bis(pyridazine-6,3-diyl))bis(2-(pyridin-2-yl)acetamide)]	< 100 nM
CCCC(=O)Nc1ccc([C@@H]2CCC[C@H](c3ccc(NC(=O)CCC)nn3)C2)nn1 [Compound 37, N,N′-(6,6′-((1R,3S)-Cyclohexane-1,3-diyl)bis(pyridazine-6,3-diyl))dibutyramide]	< 100 nM
CC(=O)Nc1ccc([C@H]2CCC[C@H](c3ccc(NC(C)=O)nn3)C2)nn1 (racemic) [Compound 41, Trans-(rac)-N,N′-(6,6′-(cyclohexane-1,3-diyl)bis(pyridazine-6,3-diyl))diacetamide]	2000 to 10000 nM

More lines, now with the values ahead:

IC50	Structure (SMILES)
< 100 nM	O=C(Nc1ccc([C@@H]2CCC[C@H](c3ccc(NC(=O)OCc4ccccc4)nn3)C2)nn1)OCc1ccccc1 [Compound 176, Dibenzyl (6,6′-((1R,3S)-cyclohexane-1,3-diyl)bis(pyridazine-6,3-diyl))dicarbamate]
< 100 nM	O=C(Cc1ccccc1)Nc1ccc([C@@H]2CCC[C@H](c3ccc(NC(=O)Cc4ccccc4)nn3)C2)nn1 [Compound 10, N,N′-(6,6′-((1R,3S)-cyclohexane-1,3-diyl)bis(pyridazine-6,3-diyl))bis(2-phenylacetamide)]
< 100 nM	O=C(Cc1ccccn1)Nc1ccc([C@@H]2CCC[C@H](c3ccc(NC(=O)Cc4ccccn4)nn3)C2)nn1 [Compound 20, N,N′-(6,6′-((1R,3S)-Cyclohexane-1,3-diyl)bis(pyridazine-6,3-diyl))bis(2-(pyridin-2-yl)acetamide)]
< 100 nM	O=C(Cc1ccccc1)Nc1ccc([C@H]2CCC[C@@H](c3nnc(NC(=O)Cc4ccccc4)s3)C2)nn1 [Compound 291, 2-Phenyl-N-(6-((1S,3R)-3-(5-(2-phenylacetamido)-1,3,4-thiadiazol-2-yl)cyclohexyl)pyridazin-3-yl)acetamide]
